Data: PMC4941645, “Oxidative Stress Induced by Pt(IV) Pro-drugs Based on the Cisplatin Scaffold and Indole Carboxylic Acids in Axial Position” (Scientific Reports, 2016)

Experiments:
[1] = test system: A549 lung carcinoma cells; assay: cells; conditions: A549, 72 h
Description: (§1) The cytotoxic activity of the complexes and of the uncoordinated ligands was evaluated by the MTT test on a panel of human tumor cell lines containing examples of pancreatic (BxPC3), colorectal (HCT-15), breast (MCF-7), cervical (A431), and lung (A549) cancers as well as of melanoma (A375). For comparison purposes, the cytotoxicity of cisplatin was evaluated under the same experimental conditions.
(§2) Cisplatin was dissolved in 0.9% NaCl solution.
(§3) Human breast (MCF-7), colon (HCT-15), lung (A549) and pancreatic (BxPC3) carcinoma cell lines together with melanoma (A375) cells were obtained from American Type Culture Collection (ATCC, Rockville, MD). The human ovarian cancer cell line 2008 and its cisplatin resistant variant, C13*, were kindly provided by Prof. G. Marverti (Department of Biomedical Science of Modena University, Italy). Human cervical carcinoma (A431) cells were kindly provided by Prof. F. Zunino (Division of Experimental Oncology B, Istituto Nazionale dei Tumori, Milan, Italy). Cell lines were maintained in the logarithmic phase at 37 °C in a 5% carbon dioxide atmosphere using the following culture media containing 10% fetal calf serum (Euroclone, Milan, Italy), antibiotics (50 units/mL penicillin and 50 μg/mL streptomycin) and 2 mM L-glutamine: (i) RPMI-1640 medium (Euroclone) for 2008, C13*, MCF-7, HCT-15, A431 and BxPC3 cells, (ii) F-12 HAM’S (Sigma Chemical Co.) for A549 cells, iii) DMEM (Sigma Chemical Co.) for A375 cells.
(§4) The growth inhibitory effect toward tumor cells was evaluated by means of the MTT assay. Briefly, (3–8) × 10^3 cells/well, dependent upon the growth characteristics of the cell line, were seeded in 96-well microplates in growth medium (100 μL). After 24 h, the medium was removed and replaced with fresh medium containing the compound to be studied at the appropriate concentration. Triplicate cultures were established for each treatment. After 24, 48, or 72 h, each well was treated with 10 μL of a 5 mg/mL MTT saline solution and, after 5 h of incubation, 100 μL of a sodium dodecylsulfate (SDS) solution in 0.01 M HCl was added. After an overnight incubation, cell growth inhibition was detected by measuring the absorbance of each well at 570 nm using a Bio-Rad 680 microplate reader. The mean absorbance for each drug dose was expressed as a percentage of the control, untreated well absorbance and plotted vs drug concentration. The IC50 values, the drug concentrations that decrease the mean absorbance at 570 nm to 50% of that of untreated control wells, were calculated from the dose–response curves with the four-parameter logistic model (4PL). The final value is the mean ± S.D. of at least three independent experiments performed in triplicate.

[2] = Log P octanol/water, shake flask method with ICP-MS; assay type: physicochemical; conditions: n-octanol / 0.9% NaCl water, Pt by ICP-MS
Description: Partition coefficients (logP values) for octanol/water partition were determined in order to examine whether a correlation exists between lipophilicity and accumulation into cells. The log P values obtained (Table 3) give the trend in lipophilicity as mono indole acid complex < succinate complex < acetate complex < bis indole acid complex < benzoate complex for both the IAA and the IPA series.
The logP values of the Pt(IV) compounds were determined using the shake flask method. The respective Pt(IV) complex was dissolved in 0.9% NaCl (w/v) ultrapure water (presaturated with n-octanol). The solutions were sonicated and filtered to remove undissolved Pt(IV) compounds. The initial Pt concentrations were determined by ICP-MS. Subsequently, the Pt(IV) solutions were added to an equal volume of n-octanol (presaturated with 0.9% NaCl (w/v) ultrapure water). The heterogeneous mixtures were shaken vigorously for 30 min before centrifuging at 4000 rpm for 30 min to achieve phase separation. The final Pt concentration in the aqueous phase was determined again by ICP-MS. The logarithm of the ratio of Pt concentrations in the organic and aqueous phases was calculated to determine the logP values. All experiments were done in duplicate.

A375 melanoma cells [3] = assay: MTT cytotoxicity test, A375; assay type: cell-based, human; conditions: ± S.D.
Description: as §1, §2, §3, §4

[4] = test system: nuclear DNA of A375 cells; assay: Nuclear DNA platination (GF-AAS); assay type: cell-based, human; conditions: A375, 5 μM, 24 h
Description: It is well known that the main cellular target of platinum complexes is the DNA, and platination of nuclear DNA is a critical step in triggering the death of cancer cells by platinum-based drugs. On this basis, the amount of platinum bound to nuclear DNA was also assessed in A375 cells treated with the tested Pt(IV) complexes. Cells were treated for 24 h with 5 μM of the tested complexes, the nuclear DNA was isolated and the amount of Pt in each sample was determined by means of GF-AAS analysis. The results expressed as pg Pt/ng DNA are depicted in Fig. 7. […] In particular, 1P led to a roughly 60-fold higher DNA platination level with respect to cisplatin.
A375 cells (3 × 10^6) were seeded in 10 cm Petri dishes in 10 mL of culture medium. Subsequently, cells were treated with the tested complexes (5 μM) for 24 h. The DNA was extracted and purified by a commercial spin column quantification kit (Qiagen DNeasy Blood and Tissue Kit). Only highly purified samples (A260/A230 ≅ 1.8 and […]) were included for analysis to avoid any artifacts. The samples were completely dried and re-dissolved in 200 μL of Milli-Q water (18.2 MΩ) for at least 20 min at 65 °C in a shaking thermo-mixer, mineralized and analyzed for total Pt content by GF-AAS as described above.

[5] = test system: panel of human tumor cell lines (BxPC3, HCT-15, MCF-7, A431, A549, A375); assay: MTT cytotoxicity, mean over panel of human tumor cell lines; assay type: cell-based; conditions: for IC50: mean over the six cell lines of Table 1, 72 h; for cytotoxic effect (in words): free ligands
Description: as §1, §4

[6] = test system: A431 cervical carcinoma cells; assay: MTT cytotoxicity test, A431; assay type: cell-based, human; conditions: ± S.D.
Description: as §1, §2, §3, §4

[7] = test system: 2008 ovarian cancer cells; assay: MTT cytotoxicity test, cisplatin-sensitive 2008; assay type: cell-based, human; conditions: 2008 cisplatin-sensitive, 72 h, ± S.D.
Description: The cytotoxic properties of the complexes were also evaluated in a pair of tumor cell lines suitably selected for their sensitivity and resistance to cisplatin (adenocarcinoma cells 2008/C13^*). Cross-resistance profiles were evaluated by means of the resistance factor (RF), defined as the ratio between IC50 values calculated for the resistant cells and those obtained with the sensitive ones (Table 2). The phenomenon of cisplatin resistance is multifactorial in nature. Nevertheless, the main molecular mechanisms involved in drug resistance in C13* cancer cells have largely been identified. Indeed, in this cell line resistance is correlated to high cellular glutathione and thioredoxin reductase levels, reduced cellular drug uptake and enhanced repair of DNA damage. […] The RF values calculated for all derivatives were six- to nine-fold lower than that of cisplatin, clearly indicating the absence of cross-resistance.
as §2
Triplicate cultures were established for each treatment.

[8] = test system: C13* cisplatin-resistant ovarian cancer cells; assay: MTT cytotoxicity test, cisplatin-resistant C13*; assay type: cell-based, human; conditions: for IC50: C13* cisplatin-resistant, 72 h, MTT, ± S.D.; for RF (resistance factor): IC50 resistant (C13*) / parent line (2008)
Description: The cytotoxic properties of the complexes were also evaluated in a pair of tumor cell lines suitably selected for their sensitivity and resistance to cisplatin (adenocarcinoma cells 2008/C13^*). Cross-resistance profiles were evaluated by means of the resistance factor (RF), defined as the ratio between IC50 values calculated for the resistant cells and those obtained with the sensitive ones (Table 2). The phenomenon of cisplatin resistance is multifactorial in nature.
as §2, §3, §4

[9] = test system: MCF-7 breast carcinoma cells; assay: MTT cytotoxicity test, MCF-7; assay type: cell-based, human; conditions: ± S.D.
Description: as §1, §2, §3, §4

[10] = test system: HCT-15 colon carcinoma cells; assay: MTT cytotoxicity test, HCT-15; assay type: cell-based, human; conditions: HCT-15, 72 h, MTT, ± S.D.
Description: as §1, §2, §3, §4

[11] = test system: BxPC3 pancreatic carcinoma cells; assay: MTT cytotoxicity test, BxPC3; assay type: cell-based, human; conditions: BxPC3, 72 h, MTT, ± S.D.
Description: as §1, §2, §3, §4

A375 cells = assay: ROS production (CM-H2DCFDA probe); assay type: cell-based, human; conditions: A375, 12.5 μM, compared with antimycin positive control
Description: ROS are products of normal cell metabolism but their levels can be increased upon exposure to toxic agents or interference with the cellular redox network. […] Consequently, cellular ROS levels upon treatment with equal doses (12.5 μM) of the different platinum complexes were monitored in A375 cancer cells by using the peroxide-sensitive fluorescent probe CM-H2DCFDA (5-(and-6)-chloromethyl-2′,7′-dichlorodihydrofluorescein diacetate, acetyl ester). Antimycin, a classical inhibitor of the mitochondrial respiratory chain at the level of complex III, was used as a positive control.
Figure 8 ROS production in A375 cells. Cells were preincubated in PBS/10 mM glucose medium for 20 min at 37 °C in the presence of 10 μM CM-DCFDA and then treated with equimolar doses (12.5 μM) of indole propionic acid Pt(IV) derivatives (panel A) or indole acetic acid Pt(IV) derivatives (panel B). The fluorescence of DCF was measured.
The production of ROS was measured in A375 cells (10^4 per well) grown for 24 h in 96-well plates in DMEM medium without phenol red (Sigma Chemical Co.). Cells were then washed with PBS and loaded with 10 μM 5-(and-6)-chloromethyl-2′,7′-dichlorodihydrofluorescein diacetate, acetyl ester (CM–H2DCFDA) (Molecular Probes-Invitrogen) for 25 min in the dark. Afterwards, cells were washed with PBS and incubated with increasing concentrations of the tested complexes. The fluorescence increase was estimated with a plate reader (Fluoroskan Ascent FL, Labsystem, Finland) at 485 (excitation) and 527 nm (emission). Antimycin (3 μM, Sigma Chemical Co.), a potent inhibitor of Complex III in the electron transport chain, was used as positive control.

A375 melanoma cells [12] = assay: Cellular accumulation of Pt (GF-AAS); assay type: cell-based, human
[13] = Homo sapiens, A-375, A375, 72 h
[14] = Homo sapiens, A-431, A431, 72 h
[15] = Homo sapiens, MCF7, MCF-7, 72 h

Row | SMILES | IC50 ([1]; MTT, ± S.D.) [µM] | Log P (octanol/water) [2] | IC50 (A375 melanoma cells [3]; A375, 72 h) [nM] | IC50 [5] [µM] | IC50 ([6]; A431, 72 h) [µM] | IC50 [7] [µM] | IC50 [8] [µM] | RF (resistance factor) [8] | IC50 ([9]; MCF-7, 72 h) [µM] | IC50 [10] [µM] | IC50 [11] [µM] | ROS production (in words) (A375 cells) | also measured
1 | CC(=O)[O][Pt]([NH2])([NH2])([Cl])([Cl])[O]C(=O)CCc1c[nH]c2ccccc12 [Complex 5P] | 3.62 ± 0.18 | −0.080 ± 0.04 | 3150 ± 20 | 11.1 | 5.35 ± 2.11 | 18 ± 1.33 | 21.9 ± 2.48 | 1.2 | 21.01 ± 0.06 | 14.03 ± 0.14 | 19.5 ± 0.68 | – | DNA platination (in words) [4]: least effective
2 | O=C(O)CCc1c[nH]c2ccccc12 [IPA, indole-3-propionic acid, reference compound] | – | – | – | – | – | – | – | – | – | – | – | no effect on cellular basal ROS levels | IC50 ([1]; Homo sapiens): > 50 µM; IC50 (A375 melanoma cells [3]; [13]): > 50000 nM; cytotoxic effect (in words) [5]: did not elicit any significant cytotoxic effect; IC50 [6, 14]: > 50 µM; IC50 [9, 15]: > 50 µM; IC50 ([10]; Homo sapiens): > 50 µM; IC50 ([11]; Homo sapiens, BXPC-3): > 50 µM
3 | N.N.O=C(CCc1c[nH]c2ccccc12)[O][Pt]([Cl])([Cl])[O]C(=O)CCc1c[nH]c2ccccc12 [Complex 2P] | 2.87 ± 1.59 | −0.051 ± 0.06 | 1350 ± 750 | 4.9 | 3 ± 0.35 | 8.37 ± 2.12 | 2.91 ± 0.64 | 0.4 | 5.54 ± 0.67 | 14 ± 1.56 | 2.56 ± 0.65 | – | –
4 | N.N.O=C(Cc1c[nH]c2ccccc12)[O][Pt]([Cl])([Cl])[O]C(=O)Cc1c[nH]c2ccccc12 [Complex 2A] | 3.75 ± 1.31 | −0.068 ± 0.07 | 1850 ± 230 | – | 13.3 ± 0.84 | 11 ± 2.14 | 3.44 ± 0.59 | 0.3 | 3.7 ± 0.29 | 25.2 ± 0.89 | 3.32 ± 0.21 | less effective compared to the positive control | –
5 | O=C(O)Cc1c[nH]c2ccccc12 [IAA, indole-3-acetic acid, reference compound] | – | – | – | – | – | – | – | – | – | – | – | no effect on cellular basal ROS levels | IC50 ([1]; Homo sapiens): > 50 µM; IC50 (A375 melanoma cells [3]; [13]): > 50000 nM; cytotoxic effect (in words) [5]: did not elicit any significant cytotoxic effect; IC50 [6, 14]: > 50 µM; IC50 [9, 15]: > 50 µM; IC50 ([10]; Homo sapiens): > 50 µM; IC50 ([11]; Homo sapiens, BXPC-3): > 50 µM
6 | N.N.[Cl][Pt][Cl] [cisplatin] | 12.6 ± 0.81 | – | 2060 ± 1010 | 8.33 | 1.96 ± 0.84 | 2.26 ± 1.06 | – | 10.5 | 7.6 ± 2.96 | 15.5 ± 2.48 | 10.2 ± 1.65 | – | –
7 | [NH2][Pt]([NH2])([Cl])([Cl])([O]C(=O)CCC(=O)O)[O]C(=O)CCc1c[nH]c2ccccc12 [Complex 4P] | 11.8 ± 1.06 | −0.100 ± 0.05 | 8660 ± 4030 | 30.4 | 29.2 ± 4.19 | > 50 | > 50 | – | 40.56 ± 0.08 | 42 ± 1.92 | > 50 | – | DNA platination (in words) [4]: least effective; cellular platinum accumulation (in words) (A375 melanoma cells [12]; A375, 1.5 and 3 μM, 6 and 24 h): lowest platinum accumulation; cellular uptake level, times lower than cisplatin (A375 melanoma cells [12]; A375, GF-AAS): about 7
